In ChEMBL document CHEMBL1127941, “Norleucine as a replacement for methionine in phosphatase-resistant linear and cyclic peptides which bind to p85 SH2 domains” (Bioorg Med Chem Lett, 1994):
Numbered stars: 1 amine (or outer) side, 2 acyl side, 3 side chain; on linkers, the order of the positions; unused ones are H or OH. Square brackets hold non-standard residues; d marks the D form. Peptide text beside a SMILES is read from it. X2 = O=C([C@@H](Cc1ccc(C(F)(F)OP(=O)(O)O)cc1)N[*:1])[*:2]; X1 = O=C([C@H](Cc1ccc(C(F)(F)OP(=O)(O)O)cc1)N[*:1])[*:2]; Pmp = N[C@@H](Cc1ccc(CP(=O)(O)O)cc1)C(=O)O; pY = N[C@@H](Cc1ccc(OP(=O)(O)O)cc1)C(=O)O; Nle = CCCC[C@H](N)C(=O)O

test: Binding affinity to Phosphatidylinositol 3-kinase C-terminal p85 SH2 domain

ID50 [µM] | SMILES
15.6 | CCCC[C@@H]1NC(=O)[C@H]2CCCN2C(=O)[C@H](C(C)C)NC(=O)[C@@H](Cc2ccc(OP(=O)(O)O)cc2)NC(=O)CNC(=O)[C@@H](CC(C)C)NC1=O
5.2 | CSCC[C@@H]1NC(=O)[C@H]2CCCN2C(=O)[C@H](C(C)C)NC(=O)[C@@H](Cc2ccc(COP(=O)(O)O)cc2)NC(=O)CNC(=O)[C@@H](CC(C)C)NC1=O
1.01 | CSCC[C@@H]1NC(=O)[C@H]2CCCN2C(=O)[C@H](C(C)C)NC(=O)[C@@H](Cc2ccc(OP(=O)(O)O)cc2)NC(=O)CNC(=O)[C@@H](CC(C)C)NC1=O
0.98 | CSCC[C@H](NC(=O)[C@@H]1CCCN1C(=O)[C@@H](NC(=O)[C@H](Cc1ccc(CP(=O)(O)O)cc1)NC(=O)CN)C(C)C)C(=O)N[C@@H](CC(C)C)C(=O)O (H-G[Pmp]VPML-OH)
1.6 | CCCC[C@H](NC(=O)[C@@H]1CCCN1C(=O)[C@@H](NC(=O)[C@H](Cc1ccc(CP(=O)(O)O)cc1)NC(=O)CN)C(C)C)C(=O)N[C@@H](CC(C)C)C(=O)O (H-G[Pmp]VP[Nle]L-OH)
0.17 | CSCC[C@H](NC(=O)[C@@H]1CCCN1C(=O)[C@@H](NC(=O)[C@H](Cc1ccc(OP(=O)(O)O)cc1)NC(=O)CN)C(C)C)C(=O)N[C@@H](CC(C)C)C(=O)O (H-G[pY]VPML-OH)
2.24 | CSCC[C@@H]1NC(=O)[C@@H]2CCCN2C(=O)[C@H](C(C)C)NC(=O)[C@H](Cc2ccc(C(F)(F)OP(=O)(O)O)cc2)NC(=O)CNC(=O)[C@H](CC(C)C)NC1=O (cyclo(G[X1]VPML))
8.9 | CCCC[C@@H]1NC(=O)[C@@H]2CCCN2C(=O)[C@H](C(C)C)NC(=O)[C@H](Cc2ccc(C(F)(F)OP(=O)(O)O)cc2)NC(=O)CNC(=O)[C@H](CC(C)C)NC1=O (cyclo(G[X1]VP[Nle]L))
32.4 | CSCC[C@@H]1NC(=O)[C@@H]2CCCN2C(=O)[C@H](C(C)C)NC(=O)[C@@H](Cc2ccc(C(F)(F)OP(=O)(O)O)cc2)NC(=O)CNC(=O)[C@H](CC(C)C)NC1=O (cyclo(G[X2]VPML))
59.1 | CCCC[C@@H]1NC(=O)[C@@H]2CCCN2C(=O)[C@H](C(C)C)NC(=O)[C@@H](Cc2ccc(C(F)(F)OP(=O)(O)O)cc2)NC(=O)CNC(=O)[C@H](CC(C)C)NC1=O (cyclo(G[X2]VP[Nle]L))
109 | CCCC[C@H](NC(=O)[C@@H]1CCCN1C(=O)[C@@H](NC(=O)C(Cc1ccc(CP(=O)(O)O)cc1)NC(=O)CN)C(C)C)C(=O)N[C@@H](CC(C)C)C(=O)O (single isomer, unassigned)
29.4 | CSCC[C@H](NC(=O)[C@@H]1CCCN1C(=O)[C@@H](NC(=O)C(Cc1ccc(CP(=O)(O)O)cc1)NC(=O)CN)C(C)C)C(=O)N[C@@H](CC(C)C)C(=O)O (single isomer, unassigned)
